Results on five compounds are retold here after article PMC5344036 (Molecular imaging and biology : MIB : the official …, 2014).

Read-outs that look alike come from different tables or passages of the source.

For series [1], the target named is α7-nAChR (Mus musculus, UniProt P49582). It counts as in vivo, CD1 mice. The note with it: 90 min post-tracer.
In series [2] the test system is α7-nAChR. Particulars: monkey PET, injection of SSR180711; cited from earlier work.
Series [3] concerns α7-nAChR. Particulars: mouse brain, prior studies of the authors; cited from earlier work.
Series [4] relates to α7-nAChR. The note with it: baboon brain, prior studies of the authors; cited from earlier work.
A further series has as its target α7-nAChRs. The note with it: read-out: equilibrium dissociation constant KD; rat; cited from earlier work.
Series [5] has as its target α7-nAChR. Particulars: rat hippocampus or human α7-nAChR recombinant membranes; cited from earlier work.
Series [6] has as its target T1, α7-nAChR (Homo sapiens, UniProt P36544). The note with it: single human PET experiment; cited from earlier work.
Series [7] is described as follows: [^18F]ASEM metabolite analysis in human plasma. The note with it: for parent [^18F]ASEM metabolized: human plasma. It counts as in vivo.
Series [8] deals with T1, α7-nAChR. Kind of series: Human PET brain imaging with [^18F]ASEM. It counts as in vivo.

T1 sequence (P36544 23-502): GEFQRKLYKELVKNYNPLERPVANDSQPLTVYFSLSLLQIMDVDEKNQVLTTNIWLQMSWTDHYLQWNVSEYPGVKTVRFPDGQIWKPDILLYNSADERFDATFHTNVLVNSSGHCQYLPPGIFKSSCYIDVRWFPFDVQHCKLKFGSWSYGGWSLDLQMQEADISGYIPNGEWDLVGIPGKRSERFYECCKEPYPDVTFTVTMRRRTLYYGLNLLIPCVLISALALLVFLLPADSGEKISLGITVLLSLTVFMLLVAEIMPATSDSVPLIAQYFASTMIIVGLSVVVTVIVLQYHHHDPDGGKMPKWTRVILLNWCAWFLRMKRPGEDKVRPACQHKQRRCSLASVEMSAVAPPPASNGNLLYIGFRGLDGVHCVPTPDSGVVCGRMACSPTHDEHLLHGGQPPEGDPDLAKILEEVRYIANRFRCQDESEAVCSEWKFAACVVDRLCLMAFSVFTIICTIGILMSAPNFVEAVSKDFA
α7-nAChR (Mus musculus, UniProt P49582), sequence (P49582 23-502): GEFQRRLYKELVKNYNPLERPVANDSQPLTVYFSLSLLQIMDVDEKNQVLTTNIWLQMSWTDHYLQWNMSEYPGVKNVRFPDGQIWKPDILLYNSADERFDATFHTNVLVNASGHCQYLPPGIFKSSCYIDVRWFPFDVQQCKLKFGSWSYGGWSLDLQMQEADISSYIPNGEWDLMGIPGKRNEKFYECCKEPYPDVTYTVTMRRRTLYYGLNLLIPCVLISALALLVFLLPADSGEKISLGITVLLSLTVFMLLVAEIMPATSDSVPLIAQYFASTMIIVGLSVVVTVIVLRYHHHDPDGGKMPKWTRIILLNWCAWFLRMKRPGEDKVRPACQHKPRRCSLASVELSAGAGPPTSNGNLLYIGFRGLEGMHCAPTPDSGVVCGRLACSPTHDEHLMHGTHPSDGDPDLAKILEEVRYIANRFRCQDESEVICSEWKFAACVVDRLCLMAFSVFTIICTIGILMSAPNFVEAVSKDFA

With `COc1ccc(/C=C2\CCCN=C2c2cccnc2)c(OC)c1` [DMXB-A, Dimethoxybenzylidene anabaseine], the “blockade of [^18F]ASEM binding” value on α7-nAChR [1] (3 mg/kg IP, hippocampus, p<0.05) is given as 28%; on α7-nAChR [1] (10 mg/kg IP, hippocampus, cortex, subcolliculus, p<0.01), 50–70%; at α7-nAChR [1] (0.1, 0.3 and 1 mg/kg IP) it was “did not show significant blockade”.

Regarding `O=C(Oc1ccc(Br)cc1)N1CCN2CCC1CC2` [SSR180711], the “reduction of [^11C]CHIBA-1001 radioactivity in the high uptake regions” value in the series on α7-nAChR [2] was 25–30%. Moreover, the “blockade of [^18F]ASEM binding” value with α7-nAChR [3] and in the series with α7-nAChR [4] was “successfully blocked” in each case.

For the compound `Cc1ccc(OC(=O)N2CCN3CCC2CC3)cc1` [[^3H]CHIBA-1001], the Kd at α7-nAChRs is 193 nM; at α7-nAChR [5] it was 120 to 180 nM.

Turning to `[11CH3]c1ccc(OC(=O)N2CCN3CCC2CC3)cc1` [[^11C]CHIBA-1001], the “target-to-non-target ratios in the brain regions” value on α7-nAChR [6] is recorded as < 1.3.

Consider `O=S1(=O)c2cc(N3CCN4CCC3CC4)ccc2-c2cccc([18F])c21` [[^18F]ASEM, 3-(1,4-diazabicyclo[3.2.2]nonan-4-yl)-6-[^18F]fluorodibenzo[b,d]thiophene 5,5-dioxide], for which the “time of plasma TAC peak” value in [7] (human arterial plasma) was ≤ 1 min. In addition, the “parent [^18F]ASEM metabolized” value in series [7] (30 min post-injection) is on record as 52.6±12.9%; in series [7] (90 min post-injection) it was 83.5±9.7%. Moreover, the “distribution volume VT, lower-binding regions” value at α7-nAChR [8] (entorhinal cortex, cerebellum, caudate, corpus callosum, PRGA) was < 15 ml/ml. Besides, on α7-nAChR [8] (human brain, after IV bolus injection), the “time of peak brain uptake post-injection” value is 15 min. Further, on α7-nAChR [8] (medium and high VT regions, two subjects, two scans separated by a few days), the “test-retest variability (TRV) of VT” value stood at 10.8±5.1%.
